Consider 6 compounds from ChEMBL document CHEMBL3997762 (Medchemcomm, 2016).

A short description of series [1]: Drug uptake in human SGC7901 cells at 3 uM after 4 hrs by flow cytometry relative to control. The following applies: sgc-7901, 4 h. It counts as ADME, cell-based.
Series [2] is described as follows: Drug uptake in human SGC7901 cells at 3 uM after 24 hrs by flow cytometry relative to control. The series is classed as ADME, cell-based. The settings on record: sgc-7901, 24 h. (Flow cytometry measures light scatter and fluorescence of single cells or particles in a stream.)
Series [3] deals with SGC-7901. Description: Cytotoxicity against human SGC7901 cells assessed as effect on cell viability at 50 uM after 48 hrs by MTT assay relative to control. It counts as functional.
Series [4] concerns GES1. Description: Cytotoxicity against human GES-1 cells assessed as effect on cell viability at 10 uM after 48 hrs by MTT assay relative to control. It counts as cell-based. The settings on record: ges1, 48 h. A general note: Tetrazolium dyes change colour on reduction, which living cells bring about.
Series [5] deals with SGC-7901. Put plainly: Cytotoxicity against human SGC7901 cells assessed as effect on cell viability at 10 uM after 48 hrs by MTT assay relative to control. The series is classed as functional.
Series [6] has as its system GES1. Description: Cytotoxicity against human GES-1 cells assessed as effect on cell viability up to 100 uM after 48 to 72 hrs by MTT assay. The series is classed as cell-based.
For series [7], the system named is GES1. Put plainly: Cytotoxicity against human GES-1 cells assessed as effect on cell viability at 50 uM after 48 hrs by MTT assay relative to control. The following applies: ges1, 48 h. It counts as cell-based.
For series [8], the system named is SGC-7901. Put plainly: Induction of ROS production in human SGC7901 cells at 5 to 10 uM after 48 hrs by MitoTracker Red CM-H2-XRos dye based flow cytometry. The series is classed as functional, cell-based.
Series [9] relates to SGC-7901. Put plainly: Induction of apoptosis in human SGC7901 cells assessed as decrease in nonapoptotic cells after 48 hrs by Annexin V/[…] staining-based flow cytometric method. The series is classed as functional, cell-based.
In series [10] the test system is SGC-7901. Put plainly: Cell cycle arrest in human SGC7901 cells assessed as decrease in G1 phase at >20 uM after 24 hrs by propidium iodide staining based flow cytometry. The series is classed as functional.
A short description of series [11]: Stability of the compound in DMEM in presence of FBS by fluorescence assay.
Series [12] is described as follows: Drug uptake in human SGC7901 cells at 5 uM after 24 hrs by flow cytometry relative to control. It counts as ADME, cell-based. The settings on record: sgc-7901, 24 h.
Series [13] is described as follows: Stability of the compound in PBS in presence of FBS by fluorescence assay. The following applies: cattle, buffer. The series is classed as physicochemical.
For series [14], the system named is SGC-7901. Description: Induction of apoptosis in human SGC7901 cells after 48 hrs by Annexin V/[…] staining-based flow cytometric method. It counts as functional, cell-based.
In series [15] the test system is SGC-7901. Description: Cell cycle arrest in human SGC7901 cells assessed as accumulation at G1 phase at <20 uM after 24 hrs by propidium iodide staining based flow cytometry. It counts as functional.
For series [16], the system named is SGC-7901. Put plainly: Cell cycle arrest in human SGC7901 cells assessed as accumulation at S phase at >20 uM after 24 hrs by propidium iodide staining based flow cytometry. It counts as functional.
Series [17] in a line: Drug uptake in human SGC7901 cells at 5 uM after 48 hrs by flow cytometry relative to control. It counts as ADME, cell-based. The settings on record: sgc-7901, 48 h.
In series [18] the test system is SGC-7901. Description: Induction of ROS production in human SGC7901 cells at 5 to 20 uM after 48 hrs by DHE dye based flow cytometry. It counts as functional, cell-based.
A short description of series [19]: Drug localization in mitochondria of human MCF7 cells at 5 uM after 24 hrs by MitoTracker Red CM-H2-XRos/Hoechst 33342 dye based confocal fluorescence microscopic analysis. The series is classed as ADME.
The test system of series [20] is SGC-7901. Put plainly: Induction of apoptosis in human SGC7901 cells assessed as decrease in viable cells after 48 hrs by Annexin V/[…] staining-based flow cytometric method. It counts as functional, cell-based.
Series [21] in a line: Drug uptake in human SGC7901 cells at 5 uM after 4 hrs by flow cytometry relative to control. It counts as ADME, cell-based. The settings on record: sgc-7901, 4 h.
Series [22] is described as follows: Drug uptake in human SGC7901 cells at 5 uM after 24 hrs by MitoTracker Red CM-H2-XRos/Hoechst 33342 dye based confocal fluorescence microscopic analysis. The series is classed as ADME, cell-based. The settings on record: sgc-7901, 24 h.
Series [23] in a line: Stability of the compound in DMEM in presence of FBS up to 96 hrs by fluorescence assay.
A short description of series [24]: Drug localization in mitochondria of human SGC7901 cells at 5 uM after 24 hrs by MitoTracker Red CM-H2-XRos/Hoechst 33342 dye based confocal fluorescence microscopic analysis. The series is classed as ADME.
Series [25] concerns SGC-7901. Description: Cytotoxicity against human SGC7901 cells assessed as decrease in cell viability pretreated for 4 hrs followed by DTT addition measured 48 to 72 hrs post dose by MTT assay. The series is classed as functional, cell-based.

Active and inactive are the calls of the source. The rule behind the calls is not given here.

On to `C[n+]1ccc(/C=C/c2c[nH]c3ccccc23)cc1.[I-]`, for which the Drug uptake in [1] worked out at 95.4%; in [2] it was 96.9%.

For `O=c1[nH]cc(F)c(=O)[nH]1` [FLUOROURACIL], the “fold change (FC)” value in series [3] was found to be 0.6; in series [4], 0.733; in series [5] it was 0.986; in series [7], 0.53. Further, the Activity result in [6] is on record as “Toxic”.

On to `O=C(Cn1cc(F)c(=O)[nH]c1=O)OCC[n+]1ccc(/C=C/c2c[nH]c3ccccc23)cc1.[Br-]`, for which the outcome in [8], in [10], in [15], in series [16] and in series [18] was Active. In addition, the “fold change (FC)” value in series [3] is reported as 0.597; in [4], 0.822; in series [5], 0.707; in [7] it was 0.561. Moreover, the Activity entry in series [9] is “Dose-dependent effect”; in series [14], “Dose-dependent effect”; in series [20], “Dose-dependent effect”; in series [6], “Non-Toxic”. Besides, the Stability in series [11] was 48 h; in [13], 72 h. Moreover, the Drug uptake was 96.6% in series [12], 95.8% in [17], “Active” in [19] and 96.5% in series [21].

With `O=C(Cn1cc(F)c(=O)[nH]c1=O)NCC[n+]1ccc(/C=C/c2c[nH]c3ccccc23)cc1.[Br-]`, the “fold change (FC)” value in series [3] is 0.888; in series [4] it was 1.055; in series [5], 0.977; in series [7] it was 1.069. Further, the values for the Stability in [11] and in series [13] were 48 h and 72 h, respectively. Besides, the Drug uptake in series [12] is on record as 1.4%; in series [17], 1.6%; in series [22], “Not Active”; in [21] it was 0.8%.

Take `O=c1[nH]c(=O)n(CCC[n+]2ccc(/C=C/c3c[nH]c4ccccc34)cc2)cc1F.[Br-]`: the “fold change (FC)” value is reported as 1.019 in series [3] and 1.072 in [7]. Also, the Stability in [11] is 48 h; in series [13], 72 h. Moreover, the Drug uptake in series [12] is recorded as 80.5%; in [17] it was 62.6%; in series [22], “Not Active”; in series [21], 78%.

With `O=c1[nH]c(=O)n(CCSSCC[n+]2ccc(/C=C/c3c[nH]c4ccccc34)cc2)cc1F.[Br-]`, the “fold change (FC)” value was 1.021 in series [3], 0.978 in series [4], 1.108 in series [5] and 0.895 in series [7]. Moreover, the Drug uptake in series [12] is 98.8%; in series [17] it was 99.6%; in series [24] it was “Active”; in [21] it was 93.2%. Also, the Stability in series [13] was 72 h; in series [23] it was “Stable”. Further, the outcome in [25] was Active.
